Data published in US9315490B2, “2,5-substituted pyrimidines” (Grünenthal GmbH, priority 2014, dated 2016).

How the values were obtained:
human PDE4B1 [1] = target: T1, human PDE4B1 (Homo sapiens, UniProt Q07343); assay: cAMP HTRF assay to determine the activity of hPDE4B1; format: biochemical; conditions: inhibition of PDE4B at a test concentration of 1 μM
T1 construct: host or cells: Sf9 cells
In short: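 Human recombinant PDE4B1 from Sf9 cells (4.8 U) in Tris-HCl, MgCl2, DTT, Tween 20 buffer at pH 7.8 with 40 nM cAMP (final), 30 min at room temperature. Reaction stopped with 1 mM IBMX; remaining cAMP detected by HTRF (665/620 nm ratio). IC50 from eight-concentration curves.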

human PDE4B1 [2] = target: T1, human PDE4B1; assay: TR-FRET assay using the LANCE Ultra cAMP kit to determine the activity of hPDE4B1; format: biochemical; conditions: read-out: Inhibition in % (inhibition of PDE4B); for inhibition at 1 µM: test concentration 1 μM; for inhibition at 10 µM: test concentration 10 μM (marked in cell)
In short: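 Sf9-expressed recombinant human PDE4B1 (0.96 U) hydrolyses 500 nM cAMP for 30 minutes at room temperature in 50 mM Tris-HCl, 50 mM MgCl2, 5 mM DTT, pH 8.5. The reaction is stopped with IBMX, and residual cAMP is measured by TR-FRET (665/620 ratio). IC50 comes from ten concentrations.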

T1 sequence (Q07343 whole entry): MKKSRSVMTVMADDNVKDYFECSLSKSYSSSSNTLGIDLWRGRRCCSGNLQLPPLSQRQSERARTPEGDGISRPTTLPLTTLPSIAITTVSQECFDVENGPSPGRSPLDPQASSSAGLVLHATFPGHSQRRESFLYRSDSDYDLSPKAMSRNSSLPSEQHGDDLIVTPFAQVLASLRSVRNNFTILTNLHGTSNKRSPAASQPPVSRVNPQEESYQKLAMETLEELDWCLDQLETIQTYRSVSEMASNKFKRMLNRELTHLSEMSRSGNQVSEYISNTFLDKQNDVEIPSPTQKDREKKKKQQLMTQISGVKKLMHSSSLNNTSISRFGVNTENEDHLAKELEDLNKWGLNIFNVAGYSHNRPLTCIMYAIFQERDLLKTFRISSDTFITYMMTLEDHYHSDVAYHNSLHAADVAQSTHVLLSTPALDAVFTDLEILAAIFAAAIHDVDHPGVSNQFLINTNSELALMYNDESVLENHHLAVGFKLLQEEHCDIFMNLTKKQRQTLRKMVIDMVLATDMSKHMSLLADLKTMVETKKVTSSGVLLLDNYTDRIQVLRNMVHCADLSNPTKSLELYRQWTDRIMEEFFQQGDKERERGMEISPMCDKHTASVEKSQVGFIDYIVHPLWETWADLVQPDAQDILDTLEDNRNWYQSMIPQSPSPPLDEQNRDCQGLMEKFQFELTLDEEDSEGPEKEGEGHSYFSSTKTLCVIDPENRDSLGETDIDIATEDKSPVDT

SMILES	melting point	inhibition at 1 µM (human PDE4B1 [1])	inhibition at 1 µM (human PDE4B1 [2])	inhibition at 10 µM (human PDE4B1 [2])
C[S+]([O-])c1cn(-c2ncc(-c3ccc(C(=O)O)cc3)cn2)c2cc(C(=O)N3CCOCC3)ccc12 (centres unmarked) [Example 191, 4-(2-(3-(Methylsulfinyl)-6-(morpholine-4-carbonyl)-1H-indol-1-yl)pyrimidin-5-yl)benzoic acid]	219 to 223 °C	85%	–	–
COC(=O)c1cccc(-c2cnc(-n3cc([S+](C)[O-])c4ccc(C(=O)N5CCOCC5)cc43)nc2)c1 (centres unmarked) [Example 192, Methyl 3-(2-(3-(methylsulfinyl)-6-(morpholine-4-carbonyl)-1H-indol-1-yl)pyrimidin-5-yl)benzoate]	217 to 220 °C	112%	–	–
C[S+]([O-])c1cn(-c2ncc(-c3cccc(C(=O)O)c3)cn2)c2cc(C(=O)N3CCOCC3)ccc12 (centres unmarked) [Example 193, 3-(2-(3-(Methylsulfinyl)-6-(morpholine-4-carbonyl)-1H-indol-1-yl)pyrimidin-5-yl)benzoic acid]	230 to 235 °C	91%	–	–
C[S+]([O-])c1cn(-c2ncc(-c3cccc(Cl)c3)cn2)c2cc(C(=O)N3CCOCC3)ccc12 (centres unmarked) [Example 194, (1-(5-(3-Chlorophenyl)pyrimidin-2-yl)-3-(methylsulfinyl)-1H-indol-6-yl)(morpholino)methanone]	211 to 213 °C	92%	–	–
C[S+]([O-])c1cn(-c2ncc(-c3cc(C#N)cs3)cn2)c2cc(C(=O)N3CCOCC3)ccc12 (centres unmarked) [Example 195, 5-(2-(3-(Methylsulfinyl)-6-(morpholine-4-carbonyl)-1H-indol-1-yl)pyrimidin-5-yl)thiophene-3-carbonitrile]	253 to 256 °C	–	95%	–
C[S+]([O-])c1cn(-c2ncc(-c3cc(C(N)=O)cs3)cn2)c2cc(C(=O)N3CCOCC3)ccc12 (centres unmarked) [Example 196, 5-(2-(3-(Methylsulfinyl)-6-(morpholine-4-carbonyl)-1H-indol-1-yl)pyrimidin-5-yl)thiophene-3-carboxamide]	302 to 305 °C	–	96%	–
Cc1csc(-c2cnc(-n3cc([S+](C)[O-])c4ccc(C(=O)N5CCOCC5)cc43)nc2)c1 (centres unmarked) [Example 197]	232 to 235 °C	–	96%	–
Cc1ccc(F)c(-c2cnc(-n3cc([S+](C)[O-])c4ccc(C(=O)N5CCOCC5)cc43)nc2)c1 (centres unmarked) [Example 198]	120 to 123 °C	114%	–	–
C[S+]([O-])c1cn(-c2ncc(-c3ccc(C(N)=O)cn3)cn2)c2cc(C(=O)N3CCOCC3)ccc12 (centres unmarked) [Example 199, 6-(2-(3-(Methylsulfinyl)-6-(morpholine-4-carbonyl)-1H-indol-1-yl)pyrimidin-5-yl)nicotinamide]	288 to 290 °C	99%	–	–
C[S+]([O-])c1cn(-c2ncc(-c3ccc(F)cn3)cn2)c2cc(C(=O)N3CCOCC3)ccc12 (centres unmarked) [Example 200, (1-(5-(5-Fluoropyridin-2-yl)pyrimidin-2-yl)-3-(methylsulfinyl)-1H-indol-6-yl)(morpholino)methanone]	244 to 248 °C	87%	–	–
C[S+]([O-])c1cn(-c2ncc(-c3ncccc3F)cn2)c2cc(C(=O)N3CCOCC3)ccc12 (centres unmarked) [Example 201, (1-(5-(3-Fluoropyridin-2-yl)pyrimidin-2-yl)-3-(methylsulfinyl)-1H-indol-6-yl)(morpholino)methanone]	222 to 225 °C	81%	–	–
C[S+]([O-])c1cn(-c2ncc(-c3cc(C(N)=O)ccn3)cn2)c2cc(C(=O)N3CCOCC3)ccc12 (centres unmarked) [Example 202, 2-(2-(3-(Methylsulfinyl)-6-(morpholine-4-carbonyl)-1H-indol-1-yl)pyrimidin-5-yl)isonicotinamide]	303 to 306 °C	94%	–	–
C[S+]([O-])c1cn(-c2ncc(-c3nc(C#N)cs3)cn2)c2cc(C(=O)N3CCOCC3)ccc12 (centres unmarked) [Example 203, 2-(2-(3-(Methylsulfinyl)-6-(morpholine-4-carbonyl)-1H-indol-1-yl)pyrimidin-5-yl)thiazole-4-carbonitrile]	273 to 276 °C	–	67%	–
C[S+]([O-])c1cn(-c2ncc(-c3nc(C(N)=O)cs3)cn2)c2cc(C(=O)N3CCOCC3)ccc12 (centres unmarked) [Example 204, 2-(2-(3-(Methylsulfinyl)-6-(morpholine-4-carbonyl)-1H-indol-1-yl)pyrimidin-5-yl)thiazole-4-carboxamide]	286 to 288 °C	–	82%	–
Cc1csc(-c2cnc(-n3cc([S+](C)[O-])c4ccc(C(=O)N5CCOCC5)cc43)nc2)n1 (centres unmarked) [Example 205, (3-(Methylsulfinyl)-1-(5-(4-methylthiazol-2-yl)pyrimidin-2-yl)-1H-indol-6-yl)(morpholino)methanone]	247 to 249 °C	–	93%	–
Cc1cnc(-c2cnc(-n3cc([S+](C)[O-])c4ccc(C(=O)N5CCOCC5)cc43)nc2)s1 (centres unmarked) [Example 206, (3-(Methylsulfinyl)-1-(5-(5-methylthiazol-2-yl)pyrimidin-2-yl)-1H-indol-6-yl)(morpholino)methanone]	257 to 260 °C	–	85%	–
C[S+]([O-])c1cn(-c2ncc(-c3ncc(C(N)=O)s3)cn2)c2cc(C(=O)N3CCOCC3)ccc12 (centres unmarked) [Example 208, 2-(2-(3-(Methylsulfinyl)-6-(morpholine-4-carbonyl)-1H-indol-1-yl)pyrimidin-5-yl)thiazole-5-carboxamide]	286 to 289 °C	–	82%	–
C[S+]([O-])c1cn(-c2ncc(-c3cc(N)ccn3)cn2)c2cc(C(=O)N3CCOCC3)ccc12 (centres unmarked) [Example 209, 2-(1-(5-(4-Aminopyridin-2-yl)pyrimidin-2-yl)-3-(methylsulfinyl)-1H-indol-6-yl)(morpholino)methanone]	293 to 297 °C	101%	–	–
CN(C)c1ccnc(-c2cnc(-n3cc([S+](C)[O-])c4ccc(C(=O)N5CCOCC5)cc43)nc2)c1 (centres unmarked) [Example 210, (1-(5-(4-(Dimethylamino)pyridin-2-yl)pyrimidin-2-yl)-3-(methylsulfinyl)-1H-indol-6-yl)(morpholino)methanone]	213 to 217 °C	96%	–	–
C[S+]([O-])c1cn(-c2ncc(-c3nccs3)cn2)c2cc(C(=O)N3CCOCC3)ccc12 (centres unmarked) [Example 211, (3-(Methylsulfinyl)-1-(5-(thiazol-2-yl)pyrimidin-2-yl)-1H-indol-6-yl)(morpholino)methanone]	235 to 237 °C	85%	–	–
C[S+]([O-])c1cn(-c2ncc(-c3ccnnc3)cn2)c2cc(C(=O)N3CCOCC3)ccc12 (centres unmarked) [Example 212, (3-(Methylsulfinyl)-1-(5-(pyridazin-4-yl)pyrimidin-2-yl)-1H-indol-6-yl)(morpholino)methanone]	278 to 282 °C	33%	–	–
C[S+]([O-])c1cn(-c2ncc(-c3ccccc3F)cn2)c2cc(C(=O)N3CCO[C@@H](CO)C3)ccc12 (stereo partly drawn) [Example 219, (1-(5-(2-Fluorophenyl)pyrimidin-2-yl)-3-(methylsulfinyl)-1H-indol-6-yl)((R)-2-(hydroxymethyl)morpholino)methanone]	206 to 210 °C	–	87%	–
C[S+]([O-])c1cn(-c2ncc(-c3ccccc3F)cn2)c2cc(C(=O)N3CCO[C@H](CO)C3)ccc12 (stereo partly drawn) [Example 220, (1-(5-(2-Fluorophenyl)pyrimidin-2-yl)-3-(methylsulfinyl)-1H-indol-6-yl)((S)-2-(hydroxymethyl)morpholino)methanone]	194 to 198 °C	–	93%	–
CN(CCN)C(=O)c1ccc2c([S+](C)[O-])cn(-c3ncc(-c4ccccc4F)cn3)c2c1 (centres unmarked) [Example 221, N-(2-Aminoethyl)-1-(5-(2-fluorophenyl)pyrimidin-2-yl)-N-methyl-3-(methylsulfinyl)-1H-indole-6-carboxamide]	88 to 92 °C	–	94%	–
CCc1ccnc(-c2cnc(-n3cc([S+](C)[O-])c4ccc(C(=O)N5CC[C@@H](N)C5)cc43)nc2)c1 (stereo partly drawn) [Example 337, ((R)-3-Aminopyrrolidin-1-yl)(1-(5-(4-ethylpyridin-2-yl)pyrimidin-2-yl)-3-(methylsulfinyl)-1H-indol-6-yl)methanone]	160 to 163 °C	–	–	102%
CC(C)c1ccnc(-c2cnc(-n3cc([S+](C)[O-])c4ccc(C(=O)N5CC[C@@H](N)C5)cc43)nc2)c1 (stereo partly drawn) [Example 338, ((R)-3-Aminopyrrolidin-1-yl)(1-(5-(4-isopropylpyridin-2-yl)pyrimidin-2-yl)-3-(methylsulfinyl)-1H-indol-6-yl)methanone]	264 to 268 °C	–	–	99%
C[S+]([O-])c1cn(-c2ncc(-c3cc(C4CC4)ccn3)cn2)c2cc(C(=O)N3CC[C@@H](N)C3)ccc12 (stereo partly drawn) [Example 339, ((R)-3-Aminopyrrolidin-1-yl)(1-(5-(4-cyclopropylpyridin-2-yl)pyrimidin-2-yl)-3-(methylsulfinyl)-1H-indol-6-yl)methanone]	278 to 281 °C	–	–	105%
Cc1ccnc(-c2cnc(-n3cc(S(C)(=O)=O)c4ccc(C(=O)N5CC[C@@H](N)C5)cc43)nc2)c1 [Example 340, (R)-(3-Aminopyrrolidin-1-yl)(1-(5-(4-methylpyridin-2-yl)pyrimidin-2-yl)-3-(methylsulfonyl)-1H-indol-6-yl)methanone]	157 to 160 °C	–	–	100%
